Reference: ChEMBL document CHEMBL5096154, “A comprehensive review on the biological interest of quinoline and its derivatives” (Bioorg Med Chem, 2021)
In brackets after ≈: the same amount, converted by molar mass.

How the values were obtained:
[1] = system: Leishmania braziliensis; experiment: Antileishmanial activity against promastigote form of Leishmania braziliensis assessed as parasite growth inhibition; assay type: functional
[2] = system: Mycobacterium tuberculosis; experiment: Antimycobacterial activity against Mycobacterium tuberculosis H37Rv assessed as bacterial growth inhibition by microplate alamar blue assay; assay type: functional
[3] = system: Plasmodium falciparum; experiment: Antimalarial activity against chloroquine-resistant Plasmodium falciparum assessed as parasite growth inhibition measured for 24 to 72 hrs; assay type: functional, organism-based

SMILES	IC90 [1] [µg/mL]	MIC [2] [µM]	further results
CC1OC1c1ccc2ccccc2n1 (stereo unspecified)	25 (≈ 135 µM)		
CCCc1ccc2ccccc2n1	20 (≈ 117 µM)		
COc1ccc(-c2nc3ncccc3c3ccoc23)cc1		5.6	
CN1c2ccccc2CCC1CCc1ccc2c(c1)OCO2 (stereo unspecified)			IC50 [3]: 276 nM
C/C=C/c1ccc2ccccc2n1 [CHIMANINE B]	25 (≈ 148 µM)		
CC[C@@H](CO)NCCN[C@@H](CC)CO [ETHAMBUTOL]		7.6	
